Blank lines part the entries; values can stand above or below the compound they belong to.
How the values were obtained:
[1] = Half life in rhesus monkey at 0.75 mg/kg, iv; type: ADME, organism-based, Macaca mulatta; design: dose 0.75 mg/kg, route intravenous; settings: in vivo
Rattus norvegicus [2] = assay: Tmin in rat at 0.5 mg/kg, iv; type: ADME, organism-based; design: dose 0.5 mg/kg, route intravenous; settings: in vivo
Rattus norvegicus [3] = assay: Ex vivo receptor occupancy at VLA4 in rat at 0.5 mg/kg, iv after 8 hrs by [125I]- -(S)-2-((2S,4R)-4-(azetidin-1-yl)-1-(3-iodophenylsulfonyl)pyrrolidine-2-carboxamido)-3-(4-(3,5-dichloroisonicotinamido)phenyl)propanoic acid competitive binding assay; type: functional
Canis familiaris [4] = assay: Ex vivo receptor occupancy at VLA4 in dog at 0.75 mg/kg, iv after 8 hrs by [125I]- -(S)-2-((2S,4R)-4-(azetidin-1-yl)-1-(3-iodophenylsulfonyl)pyrrolidine-2-carboxamido)-3-(4-(3,5-dichloroisonicotinamido)phenyl)propanoic acid competitive binding assay; type: functional, Canis lupus familiaris
Rattus norvegicus [5] = assay: Ex vivo receptor occupancy at VLA4 in rat at 1 mg/kg, po after 8 hrs by [125I]- -(S)-2-((2S,4R)-4-(azetidin-1-yl)-1-(3-iodophenylsulfonyl)pyrrolidine-2-carboxamido)-3-(4-(3,5-dichloroisonicotinamido)phenyl)propanoic acid competitive binding assay; type: functional
[6] = Plasma Clearance in rhesus monkey at 0.75 mg/kg, iv; type: ADME, organism-based, Macaca mulatta; design: dose 0.75 mg/kg, route intravenous
[7] = target: Integrin alpha-4 (Homo sapiens) (UniProt P13612); assay: Binding affinity to human VLA4 at 37 degC after 3 hrs; design: concentration or dose not given beside the values
[8] = Plasma Clearance in rat at 0.5 mg/kg, iv; type: ADME, organism-based; design: dose 0.5 mg/kg, route intravenous
Integrin alpha-4 [9] = target: T1, Integrin alpha-4 (Homo sapiens, UniProt P13612); assay: Displacement of [125I]-(S)-2-((2S,4R)-4-(azetidin-1-yl)-1-(3-iodophenylsulfonyl)pyrrolidine-2-carboxamido)-3-(4-(3,5-dichloroisonicotinamido)phenyl)propanoic acid from VLA4 in human whole blood by competitive binding assay; type: tissue-based
T1 sequence (P13612 whole entry): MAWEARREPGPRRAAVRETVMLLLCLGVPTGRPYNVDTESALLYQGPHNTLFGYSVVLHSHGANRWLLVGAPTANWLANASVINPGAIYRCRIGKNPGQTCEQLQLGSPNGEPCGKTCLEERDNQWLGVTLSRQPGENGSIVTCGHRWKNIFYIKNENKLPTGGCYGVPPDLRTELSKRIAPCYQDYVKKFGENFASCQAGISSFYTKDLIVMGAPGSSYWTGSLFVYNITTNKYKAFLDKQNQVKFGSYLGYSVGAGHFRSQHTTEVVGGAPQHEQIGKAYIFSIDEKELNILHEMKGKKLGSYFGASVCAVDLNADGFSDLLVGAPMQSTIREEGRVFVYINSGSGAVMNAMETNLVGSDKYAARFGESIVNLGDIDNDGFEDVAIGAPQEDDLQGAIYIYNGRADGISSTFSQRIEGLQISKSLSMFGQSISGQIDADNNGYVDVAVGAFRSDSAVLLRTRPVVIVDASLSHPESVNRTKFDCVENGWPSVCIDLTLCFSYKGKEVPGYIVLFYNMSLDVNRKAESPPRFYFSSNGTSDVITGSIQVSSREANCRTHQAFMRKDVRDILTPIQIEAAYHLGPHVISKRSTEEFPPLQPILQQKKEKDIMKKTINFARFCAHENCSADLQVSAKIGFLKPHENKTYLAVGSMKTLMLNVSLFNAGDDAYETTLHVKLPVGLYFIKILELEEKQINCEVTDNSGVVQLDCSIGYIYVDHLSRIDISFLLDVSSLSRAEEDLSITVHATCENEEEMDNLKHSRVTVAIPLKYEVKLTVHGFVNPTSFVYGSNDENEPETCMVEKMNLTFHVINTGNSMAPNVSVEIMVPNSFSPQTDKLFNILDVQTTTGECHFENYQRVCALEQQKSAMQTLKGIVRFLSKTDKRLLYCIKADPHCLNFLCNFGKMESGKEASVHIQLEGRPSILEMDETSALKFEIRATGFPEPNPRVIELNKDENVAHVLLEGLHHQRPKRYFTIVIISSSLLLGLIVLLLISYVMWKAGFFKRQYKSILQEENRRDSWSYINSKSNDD

Rhesus monkey [10] = assay: Tmin in rhesus monkey at 0.75 mg/kg, iv; type: ADME, organism-based, Macaca mulatta; design: dose 0.75 mg/kg, route intravenous; settings: in vivo
[11] = Half life in rat at 0.5 mg/kg, iv; type: ADME, organism-based; design: dose 0.5 mg/kg, route intravenous; settings: in vivo
Rhesus monkey [12] = assay: Ex vivo receptor occupancy at VLA4 in rhesus monkey at 0.75 mg/kg, iv after 8 hrs by [125I]- -(S)-2-((2S,4R)-4-(azetidin-1-yl)-1-(3-iodophenylsulfonyl)pyrrolidine-2-carboxamido)-3-(4-(3,5-dichloroisonicotinamido)phenyl)propanoic acid competitive binding assay; type: functional, Macaca mulatta
[13] = Plasma Clearance in dog at 0.75 mg/kg, iv; type: ADME, organism-based, Canis lupus familiaris; design: dose 0.75 mg/kg, route intravenous
[14] = Half life in dog at 0.75 mg/kg, iv; type: ADME, organism-based, Canis lupus familiaris; design: dose 0.75 mg/kg, route intravenous; settings: in vivo
Integrin alpha-4 [15] = target: T1, Integrin alpha-4; assay: Displacement of [125I]-(S)-2-((2S,4R)-4-(azetidin-1-yl)-1-(3-iodophenylsulfonyl)pyrrolidine-2-carboxamido)-3-(4-(3,5-dichloroisonicotinamido)phenyl)propanoic acid from VLA4 in human Jurkat cells washed with Hepes buffer by competitive binding assay; type: cell-based
Canis familiaris [16] = assay: Tmin in dog at 0.75 mg/kg, iv; type: ADME, organism-based, Canis lupus familiaris; design: dose 0.75 mg/kg, route intravenous; settings: in vivo
[17] = Plasma Clearance in rhesus monkey at 5 mg/kg, po; type: ADME, organism-based, Macaca mulatta; design: dose 5 mg/kg, route oral
Canis familiaris [18] = assay: Ex vivo receptor occupancy at VLA4 in dog at 5 mg/kg, po after 12 hrs by [125I]- -(S)-2-((2S,4R)-4-(azetidin-1-yl)-1-(3-iodophenylsulfonyl)pyrrolidine-2-carboxamido)-3-(4-(3,5-dichloroisonicotinamido)phenyl)propanoic acid competitive binding assay; type: functional, Canis lupus familiaris
Canis lupus familiaris = organism: Canis lupus familiaris; assay: Inhibition of dog VLA4
[19] = Plasma Clearance in rat at 5 mg/kg, po; type: ADME, organism-based; design: dose 5 mg/kg, route oral
Macaca mulatta = organism: Macaca mulatta; assay: Inhibition of rhesus monkey VLA4
Rattus norvegicus [20] = organism: Rattus norvegicus; assay: Inhibition of rat VLA4
Canis familiaris [21] = assay: Tmin in dog at 5 mg/kg, po; type: ADME, organism-based, Canis lupus familiaris; design: dose 5 mg/kg, route oral; settings: in vivo
[22] = Plasma Clearance in dog at 5 mg/kg, po; type: ADME, organism-based, Canis lupus familiaris; design: dose 5 mg/kg, route oral
[23] = Half life in dog at 5 mg/kg, po; type: ADME, organism-based, Canis lupus familiaris; design: dose 5 mg/kg, route oral; settings: in vivo
[24] = Half life in rhesus monkey at 5 mg/kg, po; type: ADME, organism-based, Macaca mulatta; design: dose 5 mg/kg, route oral; settings: in vivo
Rhesus monkey [25] = assay: Tmin in rhesus monkey at 5 mg/kg, po; type: ADME, organism-based, Macaca mulatta; design: dose 5 mg/kg, route oral; settings: in vivo
Rhesus monkey [26] = assay: Ex vivo receptor occupancy at VLA4 in rhesus monkey at 5 mg/kg, po after 8 hrs by [125I]- -(S)-2-((2S,4R)-4-(azetidin-1-yl)-1-(3-iodophenylsulfonyl)pyrrolidine-2-carboxamido)-3-(4-(3,5-dichloroisonicotinamido)phenyl)propanoic acid competitive binding assay; type: functional, Macaca mulatta
Rattus norvegicus [27] = assay: Tmin in rat at 5 mg/kg, po; type: ADME, organism-based; design: dose 5 mg/kg, route oral; settings: in vivo
Rattus norvegicus [28] = assay: Ex vivo receptor occupancy at VLA4 in rat at 5 mg/kg, po after 12 hrs by [125I]- -(S)-2-((2S,4R)-4-(azetidin-1-yl)-1-(3-iodophenylsulfonyl)pyrrolidine-2-carboxamido)-3-(4-(3,5-dichloroisonicotinamido)phenyl)propanoic acid competitive binding assay; type: functional
[29] = target: Integrin alpha-4 (Homo sapiens) (UniProt P13612); assay: Inhibition of human VLA4
Liver microsomes [30] = assay: Metabolic stability in human liver microsomes after 1 hr; type: ADME, Microsome
[31] = Half life in rat at 5 mg/kg, po; type: ADME, organism-based; design: dose 5 mg/kg, route oral; settings: in vivo
Liver microsomes [32] = assay: Metabolic stability in rat liver microsomes after 1 hr; type: ADME, Microsome
[33] = target: Integrin alpha-4 (Homo sapiens) (UniProt P13612); assay: Binding affinity to human VLA4 at 37 degC after 1 hr
Cytochrome P450 3A4 = Cytochrome P450 3A4 (Homo sapiens, UniProt P08684); assay: Inhibition of human CYP3A4; type: ADME
Sequence of Cytochrome P450 3A4 (P08684 whole entry): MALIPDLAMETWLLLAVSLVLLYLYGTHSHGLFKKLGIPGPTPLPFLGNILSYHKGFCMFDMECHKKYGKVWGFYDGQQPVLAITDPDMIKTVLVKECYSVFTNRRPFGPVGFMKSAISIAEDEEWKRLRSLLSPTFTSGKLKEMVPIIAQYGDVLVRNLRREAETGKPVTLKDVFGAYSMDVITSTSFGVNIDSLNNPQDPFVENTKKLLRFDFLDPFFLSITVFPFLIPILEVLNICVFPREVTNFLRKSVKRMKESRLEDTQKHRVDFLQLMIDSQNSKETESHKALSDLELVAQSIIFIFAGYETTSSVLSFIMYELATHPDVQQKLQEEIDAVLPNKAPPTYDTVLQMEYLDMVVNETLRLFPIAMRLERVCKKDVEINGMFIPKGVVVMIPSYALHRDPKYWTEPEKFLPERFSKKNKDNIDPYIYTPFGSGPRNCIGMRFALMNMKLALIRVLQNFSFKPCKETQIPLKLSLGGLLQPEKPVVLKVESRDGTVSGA

- half-life [1]: 1.1 h
- Tmin (Rattus norvegicus [2]): 2 h
- clearance [6]: 33 mL/min/kg
- Activity [7]: 77%
- clearance [8]: 65 mL/min/kg
- IC50 (Integrin alpha-4 [9]): 0.2 nM
- Tmin (Rhesus monkey [10]): 6 h
- half-life [11]: 1 h
- clearance [13]: 29 mL/min/kg
- half-life [14]: 0.5 h
- IC50 (Integrin alpha-4 [15]): 0.08 nM
- Tmin (Canis familiaris [16]): 1 h
Compound: O=C(Nc1ccc(C[C@H](NC(=O)[C@@H]2C[C@@H](N3CCC3)CN2S(=O)(=O)c2cc(Cl)cc(Cl)c2)C(=O)O)cc1)c1c(Cl)cncc1Cl
- Activity (Rattus norvegicus [3]): 64%
- Activity (Canis familiaris [4]): 72%
- Activity (Rattus norvegicus [5]): 46%
- Activity (Rhesus monkey [12]): 87%

- CL/F [17]: 33 mL/min/kg
- IC90 (Canis lupus familiaris): 0.19 nM
- CL/F [19]: 65 mL/min/kg
- IC90 (Macaca mulatta): 0.21 nM
- IC90 (Rattus norvegicus [20]): 0.4 nM
- Tmin (Canis familiaris [21]): 6 h
- Activity [7]: 64%
- CL/F [22]: 29 mL/min/kg
- half-life [23]: 0.5 h
- half-life [24]: 1.1 h
- Tmin (Rhesus monkey [25]): 0 h
- Tmin (Rattus norvegicus [27]): 0 h
- IC90 [29]: 0.13 nM
- Stability (Liver microsomes [30]): 56 pmol/mg
- half-life [31]: 1 h
- Stability (Liver microsomes [32]): 39 pmol/mg
Compound: N#Cc1cccc(S(=O)(=O)N2C[C@H](NC3CCC3)C[C@H]2C(=O)N[C@@H](Cc2ccc(NC(=O)c3c(Cl)cncc3Cl)cc2)C(=O)O)c1
- Activity (Canis familiaris [18]): 83%
- Activity (Rhesus monkey [26]): 88%
- Activity (Rattus norvegicus [28]): 67%

- Activity [33]: 47%
- IC50 (Integrin alpha-4 [9]): 0.4 nM
- IC50 (Integrin alpha-4 [15]): 0.09 nM
Compound: N[C@@H]1C[C@@H](C(=O)N[C@@H](Cc2ccc(NC(=O)c3c(Cl)cncc3Cl)cc2)C(=O)O)N(S(=O)(=O)c2cc(Cl)cc(Cl)c2)C1

- IC50 (Integrin alpha-4 [9]): 49 nM
- IC50 (Integrin alpha-4 [15]): 0.11 nM
Compound: C[C@@]1(C(=O)N[C@@H](Cc2ccc(NC(=O)c3c(Cl)cncc3Cl)cc2)C(=O)O)CCCN1S(=O)(=O)c1cc(Cl)cc(Cl)c1

Compound: CCOC(=O)[C@H](Cc1ccc(NC(=O)c2c(Cl)cncc2Cl)cc1)NC(=O)[C@@H]1C[C@@H](N2CCC2)CN1S(=O)(=O)c1cc(Cl)cc(Cl)c1
- Activity (Rattus norvegicus [5]): 62%

- Activity [33]: 15%
- IC50 (Integrin alpha-4 [15]): 0.2 nM
Compound: O=C(Nc1ccc(C[C@H](NC(=O)[C@@H]2C[C@H](N3CCC3)CN2S(=O)(=O)c2cc(Cl)cc(Cl)c2)C(=O)O)cc1)c1c(Cl)cncc1Cl

- Activity [7]: 82%
- IC50 (Integrin alpha-4 [9]): 0.1 nM
- IC50 (Integrin alpha-4 [15]): 0.1 nM
Compound: O=C(Nc1ccc(C[C@H](NC(=O)[C@@H]2C[C@@H](NC3CCC3)CN2S(=O)(=O)c2cc(Cl)cc(Cl)c2)C(=O)O)cc1)c1c(Cl)cncc1Cl

- IC50 (Cytochrome P450 3A4): < 400 nM
Compound: CCOC(=O)[C@H](Cc1ccc(NC(=O)c2c(Cl)cncc2Cl)cc1)NC(=O)[C@@H]1C[C@@H](NC2CCC2)CN1S(=O)(=O)c1cc(Cl)cc(Cl)c1
- Activity (Rattus norvegicus [5]): 51%

- IC50 (Cytochrome P450 3A4): 1700 nM
- Tmin (Canis familiaris [21]): 12 h
- Tmin (Rhesus monkey [25]): 0 h
- Tmin (Rattus norvegicus [27]): 0 h
Compound: CCOC(=O)[C@H](Cc1ccc(NC(=O)c2c(Cl)cncc2Cl)cc1)NC(=O)[C@@H]1C[C@@H](NC2CCC2)CN1S(=O)(=O)c1cccc(C#N)c1
- Activity (Canis familiaris [18]): 97%
- Activity (Rhesus monkey [26]): 95%
- Activity (Rattus norvegicus [28]): 77%

- Activity [7]: 82%
- IC50 (Integrin alpha-4 [9]): 0.2 nM
- IC50 (Integrin alpha-4 [15]): 0.1 nM
Compound: O=C(Nc1ccc(C[C@H](NC(=O)[C@@H]2C[C@@H](N3CCCC3)CN2S(=O)(=O)c2cc(Cl)cc(Cl)c2)C(=O)O)cc1)c1c(Cl)cncc1Cl

- Activity [33]: 62%
- IC50 (Integrin alpha-4 [9]): 1.5 nM
- IC50 (Integrin alpha-4 [15]): 0.07 nM
Compound: O=C(Nc1ccc(C[C@H](NC(=O)[C@@H]2CCCN2S(=O)(=O)c2cc(Cl)cc(Cl)c2)C(=O)O)cc1)c1c(Cl)cncc1Cl

- Activity [7]: 89%
- IC50 (Integrin alpha-4 [9]): 0.3 nM
- IC50 (Integrin alpha-4 [15]): 0.09 nM
Compound: O=C(Nc1ccc(C[C@H](NC(=O)[C@@H]2C[C@@H](N3CCCCC3)CN2S(=O)(=O)c2cc(Cl)cc(Cl)c2)C(=O)O)cc1)c1c(Cl)cncc1Cl

— ChEMBL document CHEMBL1136936, “Discovery of N-{N-[(3-cyanophenyl)sulfonyl]-4(R)-cyclobutylamino-(L)-prolyl}-4-[(3',5'-dichloroisonicotinoyl) amino]-(L)-phenylalanine (MK-0668), an extremely potent and orally active antagonist of very late antigen-4” (J Med Chem, 2009)
